Laboratory results: publication PMC9092348, “Cytotoxicity of Alizarine versus Tetrabromocathecol Cyclometalated Pt(II) Theranostic Agents: A Combined Experimental and Computational Investigation” (Inorganic Chemistry, 2022)
Like-named read-outs stand apart in the source and are kept apart here. Marks after values point to notes of the source that are not given here.

Tests used:
[1] = system: DNA of MDA-MB-231 cell line; test: DNA-bound Pt(II) by ICP-MS; assay type: cell-based, human
Procedure: First, 200,000 cells/well were seeded in the complete medium in a 12-well tray. The day after, the old media were discarded, and the cells were challenged with compound-containing media for 6 h (CisPt: 30 and 60 μM; 1: 25 and 50 μM; 2: 1 and 2 μM; 3: 50 and 100 μM). An equal percentage of DMSO was added to control samples. The cells were thus washed two times with cold phosphate buffered saline (PBS) and digested with 700 μL of a homemade digest buffer (Tris 50 mM pH 8, NaCl 100 mM, EDTA 100 mM, and SDS 1%). The suspensions were moved to vials, and 400 μL of NaCl-saturated solution was added to them. The suspensions were thus vortexed and centrifuged at 12,000 rpm for 5 min. The supernatants were retrieved, added with 500 μL of 2-propanol, vortexed, and centrifuged at 12,000 rpm for 15 min to let DNA precipitate. […] DNA-bound Pt(II) was quantified through inductively coupled plasma-mass spectrometry (ICP-MS), and data were normalized to DNA content quantified with NanoDrop Site.
(§1) (A and C) Cells were seeded in complete medium (400,000 cells/well); the day after old media were discarded and cells were incubated for 6 h with media-containing compounds at the indicated concentrations, then intracellular protein were extracted, and intracellular ^195Pt was evaluated as ng ^195Pt over protein concentration (A) and further normalized vs the compounds’ working concentrations provided (C). […]

MDA-MB-231 cell line = test: Intracellular Pt(II) content by ICP-MS; assay type: cell-based, human; settings: 6 h, Figure 6A
Procedure: First, 200,000 cells/well were seeded in complete medium in a 12-well tray. […] These concentrations correspond to IC50 and IC50/2 of each compound according to our previous work aimed at analyzing the cytotoxic performance of these Pt(II) complexes in the MDA.MB.231 cell line.[13] […] An equal percentage of DMSO was added to control samples. Cells were thus washed two times with cold PBS and lysed with 200 μL of a homemade lysis buffer (Tris 50 mM pH 7, NaCl 150 mM, NP40 1% v/v, protease, and phosphatase inhibitors 1% v/v) for 30 min at 4 °C. The intracellular Pt(II) amount was quantified through ICP-MS (BRUKER aurora M90 ICP-MS, MA, USA), and data were normalized to the total protein content evaluated via bicinchoninic acid assay.
as §1, with “(C). Cisplatin was used as the positive control. An equal amount of DMSO was supplied in each experimental condition. Data are presented as mean ± SD of three different experiments; when invisible, the error bar is included into the bar line.” for “(C).”

Calf Thymus DNA (CT-DNA) = test: DNA binding experiment: UV–vis absorption with CT-DNA; settings: complex 50 μM, PBS pH 7.4, increasing CT-DNA
Procedure: In a quartz cuvette (path length 1 cm), the UV–vis spectra were recorded of a PBS buffer solution (pH 7.4)-containing complex (1, 2, or 3, 50 μM, 0.5% DMF). The UV–vis absorption spectra were successively recorded following each addition of aliquots of Calf Thymus DNA (CT-DNA, 50 μM) after an equilibration time of 1 h.[32],[33]

[2] = Experimental measurement of LogPow by RP-HPLC; assay type: physicochemical; settings: for logPow^exp: RP-HPLC, water/methanol 80/20, 25 °C; for logPow (approximate): theoretical and experimental values in agreement
Procedure: Reverse phase high performance liquid chromatography (RP-HPLC) analysis was performed to correlate the hydrophobicity of the complexes with their retention time.

[3] = system: human triple-negative breast cancer cell line MDA-MB-231; set-up: method as in doi:10.1002/aoc.5455; settings: cited from earlier work
[4] = Stability in solution followed by absorption spectra over time; assay type: physicochemical; settings: for fate in aqueous environment (aquation): DMSO/buffer 0.5% v/v pH 7.4, within 24 h, spectra supported by TD-DFT; for solubility in aqueous medium: inferred from reduction of optical density over time
Procedure: Spectrofluorimetric-grade solvents were used for the photophysical investigations. The buffer solution (pH 7.4) was prepared by dissolving one phosphate buffer saline table in 200 mL of water. Compounds 1–3 were dissolved in DMSO and then diluted to reach a final concentration of 1 × 10^–5 M in DMSO as well as DMSO/buffer 0.5% v/v. A PerkinElmer Lambda 900 spectrophotometer was employed to obtain the UV–visible absorption spectra, using 10 mm path-length quartz cuvettes.
The photophysical properties of 1–3 in DMSO have been previously discussed.[13],[35] In order to investigate the tendency of the Pt(II) complexes to undergo hydrolysis reactions giving the corresponding aqua-complexes, their stability in aqueous solution was monitored spectrophotometrically, acquiring the absorption profiles over time (t = 0, 3, 6, and 24 h). In particular, absorption spectra were registered by dissolving 1–3 in DMSO then diluted in buffer solution (DMSO 0.5% v/v). Moreover, in order to follow a possible aquation reaction with a slower kinetics, absorption spectra were recorded dissolving 1–3 in DMSO containing a low water content, by using a nonanhydrous spectroscopic-grade solvent.

[5] = set-up: method as in PMID 21450275; settings: cited from earlier work

| SMILES | accumulation of platinum in the DNA, corrected for working concentration ([1]; 2 μM 1 compared to cisplatin 60 and 150 μM 2, 6 h, Figure 6D) [fold] | cytosolic localization (intracellular Pt) (MDA-MB-231 cell line; compared to cisplatin and the other compounds) | UV–vis spectral change on addition of CT-DNA (Calf Thymus DNA (CT-DNA)) | logPow^exp [2] | logPow (approximate) [2] | IC50 [3] [µM] | fate in aqueous environment (aquation) [4] | increase in DNA-bound ^195Pt compared to cisplatin 60 μM ([1]; highest tested concentration, 6 h, Figure 6B) [fold] | intracellular protein-bound Pt compared to the highest cisplatin dose (MDA-MB-231 cell line; highest tested concentration) [fold] | solubility in aqueous medium [4] | chromatographic logP [2] | logPow^exp [5] |
| --- | --- | --- | --- | --- | --- | --- | --- | --- | --- | --- | --- | --- |
| CCCC[N+](CCCC)(CCCC)CCCC.O=C1c2ccccc2C(=O)c2c1ccc1c2[O][Pt-]([c]2ccccc2-c2ccccn2)[O]1 (stereo not shown) [Complex 1, NBu4[(PhPy)Pt(Aliz)]] | 10 | barely localizes into cytosol | decrease of the band at 545 nm | 3.33 | around 3 | 1.9 ± 1.6 | complete detachment of the (O^O) ligand |  |  |  |  |  |
| Brc1c(Br)c(Br)c2c(c1Br)[O][Pt-]([c]1ccccc1-c1ccccn1)[O]2.CCCC[N+](CCCC)(CCCC)CCCC [Complex 2, NBu4[(PhPy)Pt(BrCat)]] |  |  | decrease of the band at 545 nm | 4.53 | ~4.5 | 52.8 ± 3.9 | converted to the corresponding mono-aquo complexes | 1.6 | 3 | poor solubility |  |  |
| N.N.O=C1c2ccccc2C(=O)c2c1ccc1c2[O][Pt][O]1 [Complex 3, [(NH3)2Pt(Aliz)]] |  |  | decrease of the band at 545 nm | 0.47 |  | 127 ± 2.7 | converted to the corresponding mono-aquo complexes |  |  | poor solubility |  |  |
| O=C1c2ccccc2C(=O)c2c1ccc(O)c2O [alizarine] |  |  |  |  |  |  |  |  |  |  | 1.87 |  |
| N.N.O=C([O-])C1(C(=O)[O-])CCC1.[Pt+2] [carboplatin] |  |  |  |  |  |  |  |  |  |  |  | -2.30 ^a |
